Reference: US20110039721A1, “METHOD FOR PREDICTION ABOUT CARCINOGENICITY OF SUBSTANCE IN RODENT” (Chemicals Evaluation and Research Institute, priority 2007, published 2011)

Legend:
rodent = conditions: classification of the substance (C+/C−); cited from earlier work
[1] = test system: mRNA expressed from the genes (A) to (D) in rat liver; assay: Behavior of genes (mRNA expression level, oligo-DNA microarray) in rat liver after 28-day oral administration; format: in vivo
Summary of the method: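 Oral gavage, once daily × 28 days; male F344 SPF rats, 5 wk, n=4/group; vehicle controls given equal solvent volume. Liver excised day 28, total RNA purified. Significance: ≥1.5× or ≤1/1.5 of vehicle, direction concordant with other carcinogens.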

[2] = gene group (A), Unigene No. Rn.167075
[3] = gene group (C), Unigene No. Rn.120914

O=C(c1ccccc1)C(O)c1ccccc1 (centres unmarked) [TS038, Benzoin]
C−: Carcinogenicity (rodent)
−: Behavior of gene caused by administration of chemical substance, Gene No. 4846 ([1]; gene group (A), Unigene No. Rn.144554) | Behavior of gene caused by administration of chemical substance, Gene No. 4218 [1, 2] | Behavior of gene caused by administration of chemical substance, Gene No. 6182 ([1]; gene group (A), Unigene No. Rn.5834) | Behavior of gene caused by administration of chemical substance, Gene No. 5600 ([1]; gene group (A), Unigene No. Rn.9836) | Behavior of gene caused by administration of chemical substance, Gene No. 1494 ([1]; gene group (B), Unigene No. Rn.1430) | Behavior of gene caused by administration of chemical substance, Gene No. 2045 ([1]; gene group (B), Unigene No. Rn.19329) | Behavior of gene caused by administration of chemical substance, Gene No. 2203 ([1]; gene group (B), Unigene No. Rn.21240) | Behavior of gene caused by administration of chemical substance, Gene No. 533 ([1]; gene group (C), Unigene No. Rn.106184) | Behavior of gene caused by administration of chemical substance, Gene No. 725 ([1]; gene group (C), Unigene No. Rn.108075) | Behavior of gene caused by administration of chemical substance, Gene No. 1163 ([1]; gene group (C), Unigene No. Rn.11766) | Behavior of gene caused by administration of chemical substance, Gene No. 1334 [1, 3] | Behavior of gene caused by administration of chemical substance, Gene No. 6620 [1, 3] | Behavior of gene caused by administration of chemical substance, Gene No. 5878 ([1]; gene group (C), Unigene No. Rn.143213) | Behavior of gene caused by administration of chemical substance, Gene No. 1131 ([1]; gene group (C), Unigene No. Rn.144946) | Behavior of gene caused by administration of chemical substance, Gene No. 1562 ([1]; gene group (C), Unigene No. Rn.14744) | Behavior of gene caused by administration of chemical substance, Gene No. 1741 ([1]; gene group (C), Unigene No. Rn.1647) | Behavior of gene caused by administration of chemical substance, Gene No. 893 ([1]; gene group (C), Unigene No. Rn.164817) | Behavior of gene caused by administration of chemical substance, Gene No. 813 ([1]; gene group (C), Unigene No. Rn.201760) | Behavior of gene caused by administration of chemical substance, Gene No. 2494 ([1]; gene group (C), Unigene No. Rn.23969) | Behavior of gene caused by administration of chemical substance, Gene No. 3776 ([1]; gene group (C), Unigene No. Rn.43232) | Behavior of gene caused by administration of chemical substance, Gene No. 3929 ([1]; gene group (C), Unigene No. Rn.4620) | Behavior of gene caused by administration of chemical substance, Gene No. 6742 ([1]; gene group (C), Unigene No. Rn.9779) | Behavior of gene caused by administration of chemical substance, Gene No. 5726 ([1]; gene group (D), Unigene No. Rn.9939)
+: Behavior of gene caused by administration of chemical substance, Gene No. 2026 [1, 2] | Behavior of gene caused by administration of chemical substance, Gene No. 4973 ([1]; gene group (C), Unigene No. Rn.118529) | Behavior of gene caused by administration of chemical substance, Gene No. 4095 ([1]; gene group (C), Unigene No. Rn.119024) | Behavior of gene caused by administration of chemical substance, Gene No. 6303 ([1]; gene group (C), Unigene No. Rn.123063) | Behavior of gene caused by administration of chemical substance, Gene No. 6026 ([1]; gene group (C), Unigene No. Rn.167685) | Behavior of gene caused by administration of chemical substance, Gene No. 154 ([1]; gene group (C), Unigene No. Rn.185941) | Behavior of gene caused by administration of chemical substance, Gene No. 1993 ([1]; gene group (C), Unigene No. Rn.18728) | Behavior of gene caused by administration of chemical substance, Gene No. 2546 ([1]; gene group (C), Unigene No. Rn.24561) | Behavior of gene caused by administration of chemical substance, Gene No. 1119 ([1]; gene group (C), Unigene No. Rn.9757) | Behavior of gene caused by administration of chemical substance, Gene No. 5634 ([1]; gene group (C), Unigene No. Rn.9862)

ClC(Cl)Cl [TS056, Chloroform]
C+: Carcinogenicity (rodent)
−: Behavior of gene caused by administration of chemical substance, Gene No. 2045 ([1]; rat, in vivo) | Behavior of gene caused by administration of chemical substance, Gene No. 2203 ([1]; rat, in vivo) | Behavior of gene caused by administration of chemical substance, Gene No. 4218 ([1]; rat, in vivo) | Behavior of gene caused by administration of chemical substance, Gene No. 4846 ([1]; rat, in vivo) | Behavior of gene caused by administration of chemical substance, Gene No. 5600 ([1]; rat, in vivo) | Behavior of gene caused by administration of chemical substance, Gene No. 5726 ([1]; rat, in vivo) | Behavior of gene caused by administration of chemical substance, Gene No. 6182 ([1]; rat, in vivo)
+: Behavior of gene caused by administration of chemical substance, Gene No. 154 ([1]; rat, in vivo) | Behavior of gene caused by administration of chemical substance, Gene No. 533 ([1]; rat, in vivo) | Behavior of gene caused by administration of chemical substance, Gene No. 725 ([1]; rat, in vivo) | Behavior of gene caused by administration of chemical substance, Gene No. 813 ([1]; rat, in vivo) | Behavior of gene caused by administration of chemical substance, Gene No. 893 ([1]; rat, in vivo) | Behavior of gene caused by administration of chemical substance, Gene No. 1119 ([1]; rat, in vivo) | Behavior of gene caused by administration of chemical substance, Gene No. 1131 ([1]; rat, in vivo) | Behavior of gene caused by administration of chemical substance, Gene No. 1163 ([1]; rat, in vivo) | Behavior of gene caused by administration of chemical substance, Gene No. 1334 ([1]; rat, in vivo) | Behavior of gene caused by administration of chemical substance, Gene No. 1494 ([1]; rat, in vivo) | Behavior of gene caused by administration of chemical substance, Gene No. 1562 ([1]; rat, in vivo) | Behavior of gene caused by administration of chemical substance, Gene No. 1741 ([1]; rat, in vivo) | Behavior of gene caused by administration of chemical substance, Gene No. 1993 ([1]; rat, in vivo) | Behavior of gene caused by administration of chemical substance, Gene No. 2026 ([1]; rat, in vivo) | Behavior of gene caused by administration of chemical substance, Gene No. 2494 ([1]; rat, in vivo) | Behavior of gene caused by administration of chemical substance, Gene No. 2546 ([1]; rat, in vivo) | Behavior of gene caused by administration of chemical substance, Gene No. 3776 ([1]; rat, in vivo) | Behavior of gene caused by administration of chemical substance, Gene No. 3929 ([1]; rat, in vivo) | Behavior of gene caused by administration of chemical substance, Gene No. 4095 ([1]; rat, in vivo) | Behavior of gene caused by administration of chemical substance, Gene No. 4973 ([1]; rat, in vivo) | Behavior of gene caused by administration of chemical substance, Gene No. 5634 ([1]; rat, in vivo) | Behavior of gene caused by administration of chemical substance, Gene No. 5878 ([1]; rat, in vivo) | Behavior of gene caused by administration of chemical substance, Gene No. 6026 ([1]; rat, in vivo) | Behavior of gene caused by administration of chemical substance, Gene No. 6303 ([1]; rat, in vivo) | Behavior of gene caused by administration of chemical substance, Gene No. 6620 ([1]; rat, in vivo) | Behavior of gene caused by administration of chemical substance, Gene No. 6742 ([1]; rat, in vivo)
